“And” between values parts separate entries of the source, which are not always exact repeats. Equal entries are not always repeated.

The term melting point denotes the temperature, or range, at which the solid turns liquid.

`CC(=O)OC1=c2ccccc2=NC1c1ccccn1` (configuration not stated) [2-pyridin-2-yl-1H-indol-3-yl acetate]: the melting point came to 130 °C.
Turning to `CC[C@H](C)[C@H](N)C(=O)O` [L-Isoleucine], the melting point came to 169 °C.
`Brc1cscc1Br` [3,4-dibromothiophene] gave a melting point of 5 °C.
In the case of `CC(C)C1C(=O)NC(=O)NC1=O` [5-isopropylbarbituric acid] it was 215 °C.
On to `N#Cc1ccc(O)c(Cl)c1` [3-chloro-4-hydroxybenzonitrile], for which the melting point amounted to 148 °C.
Regarding `Clc1ccc(C(c2ccc(Cl)cc2)C(Cl)(Cl)Cl)cc1` [DDT], the melting point was 109 °C (4×) and 108 °C (2×).
In the case of `c1cc(-c2ccncc2)ccn1` [4,4'-bipyridine] it was 113 °C.
`CCOC(=O)CC#N` [ethyl_cyanoacetate] returned a melting point of -22 °C.
In the case of `[O-][n+]1ccccc1S` [2-mercaptopyridine n-oxide] it was 71 °C.
The value for `Oc1ccc(OCc2ccccc2)cc1` [Monobenzone] was 114 °C; that for `CCOC(=O)c1cc(O)c(O)c(O)c1` [ethyl 3,4,5-trihydroxybenzoate] was 150 °C.
The value for `C/C(=C/C(=O)NN)C(=O)NN` [citraconic hydrazide] was 286 °C.
`NCCCCN` [Putrescine] yielded a melting point of 27.5 °C.
The value for `O=[N+]([O-])c1cc([N+](=O)[O-])c(F)cc1F` [1,5-difluoro-2,4-dinitrobenzene] was 74 °C; that for `O=c1c2ccccc2sc2ccccc12` [Thioxanthen-9-one] was 211 °C; that for `CCOC(=O)c1ccccc1C(=O)OCC` [diethyl phthalate] was -64 °C.
Consider `O=C(NCc1ccccc1)OCCO` [buramate], for which the melting point stood at 40 °C.
The compound `Clc1cc(Cl)c(Cl)c(Cl)c1Cl` [pentachlorobenzene] displayed a melting point of 86 °C.
Compound `N#CCc1ccccc1Br` [o-bromophenylacetonitrile] had a melting point of -1 °C.
In turn, `CC(C)C(O)C(C)(C)C` (configuration not stated) [2,2,4-trimethyl-3-pentanol] had a melting point of -11 °C.
The value for `O=C(O)COc1ccc(F)cc1` [4-fluorophenoxyacetic acid] was 105 °C; that for `CCBr` [Bromoethane] was -119 °C.
The value for `O=S(=O)(O)C(F)(F)F` [trifluoromethanesulfonic acid] was -40 °C.
The value for `CCCCCCS(=O)(=O)CC#N` [N-hexylsulfonylacetonitrile] was 42 °C; that for `C` [Methane] was -182 °C.
As for `Nc1ccc([N+](=O)[O-])cc1` [p-nitroaniline], the melting point came to 150 °C.
The value for `CCOCCOC(C)=O` [2-ethoxyethyl acetate] was -62 °C; that for `CCCCOC(=O)c1ccc(N)cc1` [butyl 4-aminobenzoate] was 58 °C.
The value for `N#CCc1ccc(C(=O)O)cc1` [p-cyanomethyl_benzoic_acid] was 192 °C.
The value for `CC(=O)CC(C)=O` [2,4-pentanedione] was -23 °C.
For the compound `CC(=O)Nc1ccccc1NNc1ccccc1` [N-[2-(2-phenylhydrazino)phenyl]acetamide], the melting point amounted to 168 °C.
Compound `CCCCCCCCCCCCCCCCCCCCCCC` [N-tricosane] registered a melting point of 49 °C.
Take `O=C1CCC(N2C(=O)c3ccccc3C2=O)C(=O)N1` (configuration not stated) [thalidomide]: the melting point was 270 °C and 275 °C.
The value for `Nc1ccccc1I` [o-iodoaniline] was 58 °C; that for `CC1(C)OC(CP(c2ccccc2)c2ccccc2)C(CP(c2ccccc2)c2ccccc2)O1` (configuration not stated) was 87 °C; that for `O=C1Cc2ccccc2C(=O)O1` [Homophthalic acid anhydride] was 143 °C.
In the case of `OCc1ccc(-c2ccccc2)cc1` [p-phenylbenzyl alcohol] it was 105 °C.
In the case of `CCOC(=O)[C@H](C)O` [ethyl l-lactate] it was -25 °C; in that of `OB(O)c1ccccc1OC(F)(F)F` [2-(trifluoromethoxy)benzeneboronic acid], 119 °C.
As to `FC(F)(F)c1ccc(Cl)c(Cl)c1` [3,4-dichlorobenzotrifluoride], the melting point is -12 °C.
In the case of `Oc1c(Br)cc(Br)c2cccnc12` [5,7-dibromo-8-hydroxyquinoline] it was 201 °C; in that of `CCCCl` [1-Chloropropane], -122 °C.
`CCCCCC(O)CC` (configuration not stated) [3-octanol] yielded a melting point of -45 °C.
In the case of `Clc1ccc(-c2cc(Cl)c(Cl)cc2Cl)cc1Cl` [PCB-118] it was 110 °C; in that of `Nc1cccc(-n2ccccc2=O)c1` [amphenidone], 183 °C; in that of `Nc1cc(Br)cnc1N` [5-bromo-2,3-diaminopyridine], 157 °C.
The value for `Brc1nc2ccccc2[nH]1` [2-bromobenzimidazole] was 198 °C; that for `c1ccc(Cc2ccccc2)cc1` [diphenylmethane] was 24 °C; that for `C1O[C@@H]1[C@H]1CO1` [butadiene diepoxide] was -19 °C.
On to `CCCCC(CC)COP(=O)(OCC(CC)CCCC)OCC(CC)CCCC` (configuration not stated) [Tris(2-ethylhexyl) phosphate], for which the melting point is -70 °C.
In the case of `O=C(O)c1ccccc1O` [salicylic_acid] it was 160 °C; in that of `CC(C)Cc1ccc(C(C)C(=O)O)cc1` (configuration not stated) [Ibumetin], 75 °C.
On to `c1cc2ccc3ccc4ccc5ccc6ccc1c1c2c3c4c5c61` [coronene], for which the melting point was 438 °C and 440 °C.
In the case of `ClC(Cl)=C(Cl)C(Cl)=C(Cl)Cl` [hexachloro-1,3-butadiene] it was -21 °C; in that of `CCCSCCC` [di-n-propyl sulfide], -102 °C.
In the case of `COc1ccc(B(O)O)c(OC)n1` [2,6-dimethoxypyridine-3-boronic acid] it was 129 °C; in that of `C[C@]12CCC(O)CC1=CC(=O)[C@@H]1[C@@H]2CC[C@]2(C)C(=O)CC[C@@H]12` (some centres not stated) [3-hydroxyandrost-5-ene-7,17-dione], 238 °C; in that of `OCCN1CCN(CCCN2c3ccccc3Sc3ccc(Cl)cc32)CC1` [perphenazine], 94 °C.
In the case of `COC1=CC(=O)C[C@@H](C)[C@]12Oc1c(Cl)c(OC)cc(OC)c1C2=O` [griseofulvin] it was 219 °C; in that of `C#CC(C)(O)c1ccccc1` (configuration not stated) [2-phenyl-3-butyn-2-ol], 49 °C; in that of `C[Si](C)(C)N=C=S` [trimethylsilyl isothiocyanate], -33 °C.
Turning to `Oc1ccc(F)cc1Cl` [2-chloro-4-fluorophenol], the melting point was 22 °C.
In turn, `CCCN(CCC)S(=O)(=O)c1ccc(C(=O)O)cc1` [Probenecid] gave a melting point of 195 °C.
The compound `C=CCC(CC)(CC)C(N)=O` [novonal] gave a melting point of 75 °C.
In the case of `O=C1CC(c2cccc(O)c2)Oc2ccccc21` (configuration not stated) [3'-hydroxyflavanone] it was 140 °C; in that of `C[C@H](O)CN` [(2S)-1-amino-2-propanol], 22.5 °C and 25 °C.
In the case of `O=C(O)CCCCCCCCCCCCCCO` [15-hydroxypentadecanoic acid] it was 86 °C.

The record behind these values is the Bradley open melting point set (2014).
